Assay results as given in patent US20250368678A1, “19-NOR-C3,3-DISUBSTITUTED C21-AZACYCLO-S[…] AND METHOD FOR USING SAME” (SHANDONG LUYE PHARMACEUTICAL CO., LTD., priority 2022, published 2025).

Tested on: not listed separately
Experiment: In vitro liver microsomal stability assay, human
Format: in vitro ADME
Conditions: Human liver microsomes
Protocol: (§1) 1) Preparation of working solutions of test samples: The test samples were diluted with acetonitrile to 100 M.
(§2) 2) Preparation of a working solution of liver microsomes: liver microsomes were diluted with 100 mM phosphate-buffered saline to 0.56 mg/mL.
(§3) 3) Preparation of a working solution of reduced nicotinamide adenine dinucleotide (NADPH): A proper amount of NADPH was weighed out and diluted with phosphate-buffered saline to 20 mM, and an equal volume of a 60 mM MgCl2 solution was added.
(§4) 4) Preparation of a stop solution: Tolbutamide was diluted with acetonitrile to 20 ng/mL, serving as a stop solution containing an internal standard.
(§5) 1) Incubation anti-adsorption EP tubes were prepared and labeled with species, test/control sample, time points (0, 5, 10, 20, 30, 60 min, Blank60, and NCF60), etc.
(§6) 2) 2 L of test or control sample working solution, diluted with acetonitrile to 100 M, and 178 L of liver microsome working solution were added to each tube. For the Blank60 tube, 2 L of acetonitrile was added instead of a test sample. The tubes were pre-incubated in a 37° C. water bath for about 10 min, with each sample tested in triplicate.
(§7) 3) After the pre-incubation was complete, 20 L of NADPH working solution was added to each tube except for the 0 min and NCF60 tubes to start reactions, and 20 L of phosphate-buffered saline (containing 30 mM MgCl2) was added to the NCF60 tube. In the incubation system, the final concentrations of the test and control samples were 1 M, the final concentration of liver microsomes was 0.5 mg/mL, the final concentration of NADPH was 1 mM, and the final concentration of MgCl2 was 3 mM.
(§8) 4) For the 0 min sample, 600 L of stop solution was added before adding the NADPH working solution. After each sample was incubated for its respective time, 600 L of stop solution was added to stop the reaction.
(§9) 5) After the reaction was stopped, each sample was vortexed for 30 s and then centrifuged at 13,500 rpm for 10 min. 100 L of the supernatant was transferred to an EP tube, and 100 L Milli-Q water was added. The mixture was well mixed by vortexing and analyzed by LC-MS/MS.
(§10) 6) Testosterone and dextromethorphan were used as positive control samples under the same conditions to assess the stability and reliability of the system.
(§11) Parameters of the test samples, including their half-lives, intrinsic clearance rates in liver microsomes, and hepatic intrinsic clearance rates, were calculated based on the percentage of test sample remaining.

Structure (SMILES)	CLint scaled at 1 µM [mL/min/kg]	half-life at 1 µM [min]
C[C@@]1(O)CC[C@H]2[C@H](CC[C@@H]3[C@@H]2CC[C@]2(C)[C@@H](C(=O)Cn4cnn(-c5ccccc5)c4=O)CC[C@@H]32)C1 [Compound 3]	11	118
C[C@@]1(O)CC[C@H]2[C@H](CC[C@@H]3[C@@H]2CC[C@]2(C)[C@@H](C(=O)Cn4cnn(-c5cccc(F)c5F)c4=O)CC[C@@H]32)C1 [Compound 27]	14	91.2
C[C@@]1(O)CC[C@H]2[C@H](CC[C@@H]3[C@@H]2CC[C@]2(C)[C@@H](C(=O)Cn4cnn(-c5cccc(C#N)c5)c4=O)CC[C@@H]32)C1 [Compound 34]	7	178
CC(C)(C)n1ncn(CC(=O)[C@H]2CC[C@H]3[C@@H]4CC[C@@H]5C[C@](C)(O)CC[C@@H]5[C@H]4CC[C@]23C)c1=O [Compound 45]	22	56.3

Same assay, conditions: Human liver microsomes 0.5 mg/mL, NADPH

Structure (SMILES)	Remaining amount % at 60 min [%]
C[C@@]1(O)CC[C@H]2[C@H](CC[C@@H]3[C@@H]2CC[C@]2(C)[C@@H](C(=O)Cn4cnn(-c5ccccc5)c4=O)CC[C@@H]32)C1 [Compound 3]	70.25
C[C@@]1(O)CC[C@H]2[C@H](CC[C@@H]3[C@@H]2CC[C@]2(C)[C@@H](C(=O)Cn4cnn(-c5cccc(F)c5F)c4=O)CC[C@@H]32)C1 [Compound 27]	64.13
C[C@@]1(O)CC[C@H]2[C@H](CC[C@@H]3[C@@H]2CC[C@]2(C)[C@@H](C(=O)Cn4cnn(-c5cccc(C#N)c5)c4=O)CC[C@@H]32)C1 [Compound 34]	79.9
CC(C)(C)n1ncn(CC(=O)[C@H]2CC[C@H]3[C@@H]4CC[C@@H]5C[C@](C)(O)CC[C@@H]5[C@H]4CC[C@]23C)c1=O [Compound 45]	48.81

Same assay, conditions: Human liver microsomes; read-out: CLint(mic)

Structure (SMILES)	microsomal CLint at 1 µM [µL/min/mg]
C[C@@]1(O)CC[C@H]2[C@H](CC[C@@H]3[C@@H]2CC[C@]2(C)[C@@H](C(=O)Cn4cnn(-c5ccccc5)c4=O)CC[C@@H]32)C1 [Compound 3]	12
C[C@@]1(O)CC[C@H]2[C@H](CC[C@@H]3[C@@H]2CC[C@]2(C)[C@@H](C(=O)Cn4cnn(-c5cccc(F)c5F)c4=O)CC[C@@H]32)C1 [Compound 27]	15
C[C@@]1(O)CC[C@H]2[C@H](CC[C@@H]3[C@@H]2CC[C@]2(C)[C@@H](C(=O)Cn4cnn(-c5cccc(C#N)c5)c4=O)CC[C@@H]32)C1 [Compound 34]	8
CC(C)(C)n1ncn(CC(=O)[C@H]2CC[C@H]3[C@@H]4CC[C@@H]5C[C@](C)(O)CC[C@@H]5[C@H]4CC[C@]23C)c1=O [Compound 45]	25

Tested on: not listed separately
Experiment: In vitro liver microsomal stability assay, rat
Format: in vitro ADME
Conditions: Rat liver microsomes
Protocol: as §1, §2, §3, §4, §5, §6, §7, §8, §9, §10, §11

Structure (SMILES)	CLint scaled at 1 µM [mL/min/kg]	half-life at 1 µM [min]
C[C@@]1(O)CC[C@H]2[C@H](CC[C@@H]3[C@@H]2CC[C@]2(C)[C@@H](C(=O)Cn4cnn(-c5ccccc5)c4=O)CC[C@@H]32)C1 [Compound 3]	94	26.5
C[C@@]1(O)CC[C@H]2[C@H](CC[C@@H]3[C@@H]2CC[C@]2(C)[C@@H](C(=O)Cn4cnn(-c5cccc(F)c5F)c4=O)CC[C@@H]32)C1 [Compound 27]	122	20.4
C[C@@]1(O)CC[C@H]2[C@H](CC[C@@H]3[C@@H]2CC[C@]2(C)[C@@H](C(=O)Cn4cnn(-c5cccc(C#N)c5)c4=O)CC[C@@H]32)C1 [Compound 34]	98	25.6
CC(C)(C)n1ncn(CC(=O)[C@H]2CC[C@H]3[C@@H]4CC[C@@H]5C[C@](C)(O)CC[C@@H]5[C@H]4CC[C@]23C)c1=O [Compound 45]	281	8.9

Same assay, conditions: Rat liver microsomes 0.5 mg/mL, NADPH

Structure (SMILES)	Remaining amount % at 60 min [%]
C[C@@]1(O)CC[C@H]2[C@H](CC[C@@H]3[C@@H]2CC[C@]2(C)[C@@H](C(=O)Cn4cnn(-c5ccccc5)c4=O)CC[C@@H]32)C1 [Compound 3]	51.77
C[C@@]1(O)CC[C@H]2[C@H](CC[C@@H]3[C@@H]2CC[C@]2(C)[C@@H](C(=O)Cn4cnn(-c5cccc(F)c5F)c4=O)CC[C@@H]32)C1 [Compound 27]	14.60
C[C@@]1(O)CC[C@H]2[C@H](CC[C@@H]3[C@@H]2CC[C@]2(C)[C@@H](C(=O)Cn4cnn(-c5cccc(C#N)c5)c4=O)CC[C@@H]32)C1 [Compound 34]	20.5
CC(C)(C)n1ncn(CC(=O)[C@H]2CC[C@H]3[C@@H]4CC[C@@H]5C[C@](C)(O)CC[C@@H]5[C@H]4CC[C@]23C)c1=O [Compound 45]	7.24

Same assay, conditions: Rat liver microsomes; read-out: CLint(mic)

Structure (SMILES)	microsomal CLint at 1 µM [µL/min/mg]
C[C@@]1(O)CC[C@H]2[C@H](CC[C@@H]3[C@@H]2CC[C@]2(C)[C@@H](C(=O)Cn4cnn(-c5ccccc5)c4=O)CC[C@@H]32)C1 [Compound 3]	52
C[C@@]1(O)CC[C@H]2[C@H](CC[C@@H]3[C@@H]2CC[C@]2(C)[C@@H](C(=O)Cn4cnn(-c5cccc(F)c5F)c4=O)CC[C@@H]32)C1 [Compound 27]	68
C[C@@]1(O)CC[C@H]2[C@H](CC[C@@H]3[C@@H]2CC[C@]2(C)[C@@H](C(=O)Cn4cnn(-c5cccc(C#N)c5)c4=O)CC[C@@H]32)C1 [Compound 34]	54
CC(C)(C)n1ncn(CC(=O)[C@H]2CC[C@H]3[C@@H]4CC[C@@H]5C[C@](C)(O)CC[C@@H]5[C@H]4CC[C@]23C)c1=O [Compound 45]	156

Biological target: T1, α4β3δ GABA receptors (α4β3δ-HEK-FlpIn-TRex stable cell strain) (Homo sapiens, UniProt P28472+P48169)
T1 construct: expressed in transfected cells
Experiment: Whole-cell patch clamp, extrasynaptic functional activity (positive allosteric regulation of GABA-induced current)
Format: cell-based
Conditions: patch clamp -60 mV, GABA at EC10-20, α4β3δ-HEK-FlpIn-TRex cells
Protocol: (§12) The α4β3δ-HEK-FlpIn-TRex stable cell strain was cultured in DMEM+10% FBS complete culture medium, with the selective antibiotics being 10 μg/mL Blasticidin, 100 µg/mL Zeocin, 100 µg/mL Hygromycin, and 0.2 μg/mL Puromycin. The α1β2γ2-CHO-TRex stable cell strain was cultured in DMEM/F12+10% FBS complete culture medium, with the selective antibiotics being 10 μg/mL Blasticidin, 100 μg/mL Zeocin, 300 μg/mL Hygromycin, and […] Puromycin.
(§13) The day before the patch clamp experiment, cells were seeded onto 12 mm polylysine-coated coverslips and then cultured in 35 mm culture dishes, and tetracycline ([…]) was added to induce the expression of GABA receptors. The extracellular fluid had the following composition (in mM): 140 NaCl, 3 KCl, 1.5 MgCl2, 2 CaCl2, 10 HEPES, and 10 Glucose. After thorough mixing, NaOH was added to adjust the pH to 7.4, and sucrose was added to adjust the osmotic pressure to 300-320 mOsm. The fluid was stored at 4° C. The electrode internal solution had the following composition (in mM): 145 KCl, 1 MgCl2, 5 EGTA, 10 HEPES, and 5 MgATP. After thorough mixing, KOH was added to adjust the pH to 7.3, and sucrose was added to adjust the osmotic pressure to 290-300 mOsm. The solution was filtered through a […] before use.
(§14) Whole-cell patch clamp recording was mainly employed in this experiment. The membrane potential was clamped at −60 mV, and receptors were activated using GABA at an EC10-20 concentration ([…]). The test compounds were dissolved in 0.1% DMSO, and perfusion was performed for 30 s prior to GABA stimulation. Finally, the positive allosteric regulating effects of the test compounds on α1β2γ2 or α4β3δ were determined.
(§15) The experimental result for each concentration was expressed as a fold increase in the GABA-induced current caused by the compound. […] At least 5 concentrations are tested to obtain a complete EC50 curve and EC50 values. All experiments were repeated on no less than 3 cells, and data processing was completed using GraphPad prism software. The dose-response curves were fitted using the Hill equation, and the half-maximal activating concentration EC50 and Emax were finally obtained.

T1 sequence (P48169 36-554): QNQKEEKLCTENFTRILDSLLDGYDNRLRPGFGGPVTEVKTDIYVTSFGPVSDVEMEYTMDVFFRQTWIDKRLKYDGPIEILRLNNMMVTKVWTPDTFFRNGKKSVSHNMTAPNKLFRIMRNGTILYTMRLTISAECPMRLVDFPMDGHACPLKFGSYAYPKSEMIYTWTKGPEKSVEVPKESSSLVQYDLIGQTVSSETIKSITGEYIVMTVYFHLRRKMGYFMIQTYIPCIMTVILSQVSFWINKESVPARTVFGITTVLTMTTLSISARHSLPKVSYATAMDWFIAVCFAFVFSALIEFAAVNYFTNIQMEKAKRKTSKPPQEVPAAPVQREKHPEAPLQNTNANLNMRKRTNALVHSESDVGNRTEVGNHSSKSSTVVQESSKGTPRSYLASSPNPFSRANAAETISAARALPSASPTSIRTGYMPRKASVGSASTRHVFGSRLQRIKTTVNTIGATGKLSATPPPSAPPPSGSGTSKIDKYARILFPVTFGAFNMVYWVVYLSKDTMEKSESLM
T1 sequence (P28472 26-473): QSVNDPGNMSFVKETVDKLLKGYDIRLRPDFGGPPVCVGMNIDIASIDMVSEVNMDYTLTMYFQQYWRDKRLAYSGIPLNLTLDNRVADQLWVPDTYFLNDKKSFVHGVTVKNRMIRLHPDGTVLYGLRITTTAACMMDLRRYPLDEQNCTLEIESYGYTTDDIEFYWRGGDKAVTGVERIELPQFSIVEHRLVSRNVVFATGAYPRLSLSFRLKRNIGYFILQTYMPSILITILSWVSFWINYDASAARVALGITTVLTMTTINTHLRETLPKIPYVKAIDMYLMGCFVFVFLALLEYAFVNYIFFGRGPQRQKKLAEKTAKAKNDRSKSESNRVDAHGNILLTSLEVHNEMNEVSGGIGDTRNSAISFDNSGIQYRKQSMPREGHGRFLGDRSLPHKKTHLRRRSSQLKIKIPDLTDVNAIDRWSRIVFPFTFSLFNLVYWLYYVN
T1 sequence (O14764 25-452 partner): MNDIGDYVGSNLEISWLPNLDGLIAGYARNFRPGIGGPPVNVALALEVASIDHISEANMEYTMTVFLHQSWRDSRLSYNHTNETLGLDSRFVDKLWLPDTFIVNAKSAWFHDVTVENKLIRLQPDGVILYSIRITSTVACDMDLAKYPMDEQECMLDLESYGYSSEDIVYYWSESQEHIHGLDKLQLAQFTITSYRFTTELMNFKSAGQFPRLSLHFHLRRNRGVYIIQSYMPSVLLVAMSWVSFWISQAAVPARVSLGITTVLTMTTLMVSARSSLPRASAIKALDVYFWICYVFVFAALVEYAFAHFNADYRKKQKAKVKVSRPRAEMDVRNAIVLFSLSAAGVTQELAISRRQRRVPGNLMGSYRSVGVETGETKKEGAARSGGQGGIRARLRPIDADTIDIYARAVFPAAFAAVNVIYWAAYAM

Structure (SMILES)	EC50 [µM]	Emax [%]
C[C@@]1(O)CC[C@H]2[C@H](CC[C@@H]3[C@@H]2CC[C@]2(C)[C@@H](C(=O)Cn4cnn(-c5ccccc5)c4=O)CC[C@@H]32)C1 [Compound 3]	0.029	490
C[C@@]1(O)CC[C@H]2[C@H](CC[C@@H]3[C@@H]2CC[C@]2(C)[C@@H](C(=O)Cn4cnn(-c5cccc(F)c5F)c4=O)CC[C@@H]32)C1 [Compound 27]	0.042	526
C[C@@]1(O)CC[C@H]2[C@H](CC[C@@H]3[C@@H]2CC[C@]2(C)[C@@H](C(=O)Cn4cnn(-c5cccc(C#N)c5)c4=O)CC[C@@H]32)C1 [Compound 34]	0.05	683
CC(C)(C)n1ncn(CC(=O)[C@H]2CC[C@H]3[C@@H]4CC[C@@H]5C[C@](C)(O)CC[C@@H]5[C@H]4CC[C@]23C)c1=O [Compound 45]	0.113	749

Biological target: T2, α1β2γ2 GABA receptors (α1β2γ2-CHO-TRex stable cell strain) (Homo sapiens, UniProt P14867+P47870)
T2 construct: expressed in transfected cells
Experiment: Whole-cell patch clamp, intrasynaptic functional activity (positive allosteric regulation of GABA-induced current)
Format: cell-based
Conditions: patch clamp -60 mV, GABA at EC10-20, α1β2γ2-CHO-TRex cells
Protocol: as §12, §13, §14, §15

T2 sequence (P14867 28-456): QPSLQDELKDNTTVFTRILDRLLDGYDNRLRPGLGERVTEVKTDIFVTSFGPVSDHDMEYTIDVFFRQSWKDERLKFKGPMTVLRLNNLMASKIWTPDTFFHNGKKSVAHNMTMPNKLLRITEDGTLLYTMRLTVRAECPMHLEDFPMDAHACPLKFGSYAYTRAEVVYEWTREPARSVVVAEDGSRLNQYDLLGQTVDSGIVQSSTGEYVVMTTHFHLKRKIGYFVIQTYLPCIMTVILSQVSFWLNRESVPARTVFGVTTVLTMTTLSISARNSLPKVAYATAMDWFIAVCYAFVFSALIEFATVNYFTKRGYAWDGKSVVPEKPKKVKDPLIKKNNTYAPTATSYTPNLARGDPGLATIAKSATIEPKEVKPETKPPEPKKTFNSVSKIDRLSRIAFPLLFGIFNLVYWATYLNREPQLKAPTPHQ
T2 sequence (P47870 25-512 limits assumed): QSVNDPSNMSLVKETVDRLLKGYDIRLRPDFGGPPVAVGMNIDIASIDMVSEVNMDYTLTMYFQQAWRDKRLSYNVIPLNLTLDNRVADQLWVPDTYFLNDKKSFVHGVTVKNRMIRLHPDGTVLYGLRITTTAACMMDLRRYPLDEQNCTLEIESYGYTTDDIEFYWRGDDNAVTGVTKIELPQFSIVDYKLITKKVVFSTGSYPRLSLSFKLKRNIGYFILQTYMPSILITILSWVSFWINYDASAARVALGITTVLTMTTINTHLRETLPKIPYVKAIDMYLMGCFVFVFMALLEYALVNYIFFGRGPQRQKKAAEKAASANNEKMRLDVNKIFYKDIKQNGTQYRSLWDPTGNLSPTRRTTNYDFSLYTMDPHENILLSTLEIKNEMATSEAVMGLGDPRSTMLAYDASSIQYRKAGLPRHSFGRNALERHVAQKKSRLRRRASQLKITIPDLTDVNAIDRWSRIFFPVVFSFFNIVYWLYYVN
T2 sequence (P18507 40-475 partner): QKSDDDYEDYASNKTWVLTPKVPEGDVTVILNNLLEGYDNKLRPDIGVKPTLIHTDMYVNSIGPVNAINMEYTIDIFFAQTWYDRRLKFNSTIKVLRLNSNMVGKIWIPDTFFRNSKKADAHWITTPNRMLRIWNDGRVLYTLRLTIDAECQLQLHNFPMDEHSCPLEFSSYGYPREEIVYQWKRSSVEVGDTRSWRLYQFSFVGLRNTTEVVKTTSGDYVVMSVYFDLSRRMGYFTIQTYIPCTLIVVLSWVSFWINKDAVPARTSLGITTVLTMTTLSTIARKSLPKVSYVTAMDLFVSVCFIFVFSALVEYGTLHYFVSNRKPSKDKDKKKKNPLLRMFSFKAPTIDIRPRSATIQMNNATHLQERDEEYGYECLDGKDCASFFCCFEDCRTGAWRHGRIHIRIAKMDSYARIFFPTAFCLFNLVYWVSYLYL

Structure (SMILES)	EC50 [µM]	Emax [%]
C[C@@]1(O)CC[C@H]2[C@H](CC[C@@H]3[C@@H]2CC[C@]2(C)[C@@H](C(=O)Cn4cnn(-c5ccccc5)c4=O)CC[C@@H]32)C1 [Compound 3]	0.09	430
C[C@@]1(O)CC[C@H]2[C@H](CC[C@@H]3[C@@H]2CC[C@]2(C)[C@@H](C(=O)Cn4cnn(-c5cccc(F)c5F)c4=O)CC[C@@H]32)C1 [Compound 27]	0.126	445
C[C@@]1(O)CC[C@H]2[C@H](CC[C@@H]3[C@@H]2CC[C@]2(C)[C@@H](C(=O)Cn4cnn(-c5cccc(C#N)c5)c4=O)CC[C@@H]32)C1 [Compound 34]	0.112	
CC(C)(C)n1ncn(CC(=O)[C@H]2CC[C@H]3[C@@H]4CC[C@@H]5C[C@](C)(O)CC[C@@H]5[C@H]4CC[C@]23C)c1=O [Compound 45]	0.121	806
